{
  "source": "ChEMBL document CHEMBL1139192",
  "about": "“Novel bis(indolyl)maleimide pyridinophanes that are potent, selective inhibitors of glycogen synthase kinase-3” (Bioorg Med Chem Lett, 2007)",
  "biological_target": "Glycogen synthase kinase-3 beta (Homo sapiens, UniProt P49841)",
  "sequence (P49841 whole entry)": "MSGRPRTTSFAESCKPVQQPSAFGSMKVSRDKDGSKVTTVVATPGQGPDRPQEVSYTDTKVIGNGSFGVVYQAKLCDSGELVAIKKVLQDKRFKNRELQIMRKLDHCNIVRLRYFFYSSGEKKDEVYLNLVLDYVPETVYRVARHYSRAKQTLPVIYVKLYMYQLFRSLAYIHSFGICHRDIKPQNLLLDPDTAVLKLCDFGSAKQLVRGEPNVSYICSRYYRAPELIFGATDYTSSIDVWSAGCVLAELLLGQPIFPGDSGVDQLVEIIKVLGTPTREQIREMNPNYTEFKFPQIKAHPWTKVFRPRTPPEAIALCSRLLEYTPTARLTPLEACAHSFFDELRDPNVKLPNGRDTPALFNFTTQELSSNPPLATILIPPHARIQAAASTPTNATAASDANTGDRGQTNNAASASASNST",
  "experiment": "Inhibition of human recombinant GSK3-beta",
  "data": [
    {"compound": "CN(C)c1nc2ccc1CCCn1cc(c3ccccc31)C1=C(C(=O)NC1=O)c1cn(c3ccccc13)CCC2", "values": [
      {"measurement": "IC50", "result": 37, "unit": "nM"}
    ]}
  ]
}
